Experimental data from patent publication US20070208166A1, “Tao Kinase Modulators And Method Of Use” (Exelixis, Inc., priority 2003, published 2007).
pIC50: −log10 of the molar value.

Tests used:
Assay type in all cases: biochemical
[1] = molecular target: T1, KIAA 1361 (baculovirus expressed human KIAA 1361 kinase domain 2-322) (Homo sapiens, UniProt Q7L7X3); test: KIAA 1361 Luciferase-Coupled Chemiluminescent Kinase assay (LCCA); conditions: 2 μM ATP, 10 μM MBP, 12 nM KIAA 1361, 2 hours; read-out: KIAA1361 inhibition IC50
T1 construct: human KIAA 1361 kinase domain 2-322; made in house
T1 sequence (Q7L7X3 2-322): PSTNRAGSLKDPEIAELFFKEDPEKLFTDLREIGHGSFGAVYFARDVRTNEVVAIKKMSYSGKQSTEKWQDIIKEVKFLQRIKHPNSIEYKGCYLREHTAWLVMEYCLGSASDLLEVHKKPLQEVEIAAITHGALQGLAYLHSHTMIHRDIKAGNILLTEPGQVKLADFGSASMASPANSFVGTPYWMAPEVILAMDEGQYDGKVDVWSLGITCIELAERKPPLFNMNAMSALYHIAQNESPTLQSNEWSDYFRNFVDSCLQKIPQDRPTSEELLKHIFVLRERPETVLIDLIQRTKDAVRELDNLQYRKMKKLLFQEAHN
How it was run: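 KIAA 1361 kinase domain 2-322 (baculovirus, 12 nM) with 2 μM ATP and 10 μM MBP in Tris pH 7.5, MgCl2, MnCl2; 2 h, ambient. Remaining ATP read by luciferase chemiluminescence; 10 concentrations, IC50 by four-parameter fit.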

[2] = molecular target: T2, JIK (Homo sapiens, UniProt Q9H2K8); test: JIK Luciferase-Coupled Chemiluminescent Kinase assay (LCCA); conditions: 2 μM ATP, 10 μM MBP, 6 nM JIK, 2 hours; read-out: JIK inhibition IC50
T2 construct: 6 nM JIK (baculovirus expressed human KIAA 1361 kinase domain2-318); made in house
T2 sequence (Q9H2K8 2-318): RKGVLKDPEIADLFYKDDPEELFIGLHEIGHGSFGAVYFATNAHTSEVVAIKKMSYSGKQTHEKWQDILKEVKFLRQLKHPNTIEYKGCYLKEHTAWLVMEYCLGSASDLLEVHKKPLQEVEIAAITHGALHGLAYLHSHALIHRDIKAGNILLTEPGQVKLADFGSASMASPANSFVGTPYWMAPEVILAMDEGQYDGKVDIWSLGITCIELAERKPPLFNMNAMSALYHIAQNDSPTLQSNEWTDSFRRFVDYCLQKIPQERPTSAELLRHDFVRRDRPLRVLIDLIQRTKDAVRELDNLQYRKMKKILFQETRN
How it was run: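 Baculovirus-expressed human KIAA 1361 kinase domain 2-318 at 6 nM, with 10 μM MBP and 2 μM ATP in Tris pH 7.5 with Mg/Mn, ran 2 h at ambient temperature. Remaining ATP was read by luciferase chemiluminescence. IC50 comes from a 10-concentration four-parameter fit.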

[3] = molecular target: T3, TAO (Homo sapiens, UniProt Q9UL54); test: TAO Luciferase-Coupled Chemiluminescent Kinase assay (LCCA); conditions: 2 μM ATP, 10 μM MBP, 12 nM TAO, 2 hours; read-out: TAO inhibition IC50
T3 sequence (Q9UL54 1-1235): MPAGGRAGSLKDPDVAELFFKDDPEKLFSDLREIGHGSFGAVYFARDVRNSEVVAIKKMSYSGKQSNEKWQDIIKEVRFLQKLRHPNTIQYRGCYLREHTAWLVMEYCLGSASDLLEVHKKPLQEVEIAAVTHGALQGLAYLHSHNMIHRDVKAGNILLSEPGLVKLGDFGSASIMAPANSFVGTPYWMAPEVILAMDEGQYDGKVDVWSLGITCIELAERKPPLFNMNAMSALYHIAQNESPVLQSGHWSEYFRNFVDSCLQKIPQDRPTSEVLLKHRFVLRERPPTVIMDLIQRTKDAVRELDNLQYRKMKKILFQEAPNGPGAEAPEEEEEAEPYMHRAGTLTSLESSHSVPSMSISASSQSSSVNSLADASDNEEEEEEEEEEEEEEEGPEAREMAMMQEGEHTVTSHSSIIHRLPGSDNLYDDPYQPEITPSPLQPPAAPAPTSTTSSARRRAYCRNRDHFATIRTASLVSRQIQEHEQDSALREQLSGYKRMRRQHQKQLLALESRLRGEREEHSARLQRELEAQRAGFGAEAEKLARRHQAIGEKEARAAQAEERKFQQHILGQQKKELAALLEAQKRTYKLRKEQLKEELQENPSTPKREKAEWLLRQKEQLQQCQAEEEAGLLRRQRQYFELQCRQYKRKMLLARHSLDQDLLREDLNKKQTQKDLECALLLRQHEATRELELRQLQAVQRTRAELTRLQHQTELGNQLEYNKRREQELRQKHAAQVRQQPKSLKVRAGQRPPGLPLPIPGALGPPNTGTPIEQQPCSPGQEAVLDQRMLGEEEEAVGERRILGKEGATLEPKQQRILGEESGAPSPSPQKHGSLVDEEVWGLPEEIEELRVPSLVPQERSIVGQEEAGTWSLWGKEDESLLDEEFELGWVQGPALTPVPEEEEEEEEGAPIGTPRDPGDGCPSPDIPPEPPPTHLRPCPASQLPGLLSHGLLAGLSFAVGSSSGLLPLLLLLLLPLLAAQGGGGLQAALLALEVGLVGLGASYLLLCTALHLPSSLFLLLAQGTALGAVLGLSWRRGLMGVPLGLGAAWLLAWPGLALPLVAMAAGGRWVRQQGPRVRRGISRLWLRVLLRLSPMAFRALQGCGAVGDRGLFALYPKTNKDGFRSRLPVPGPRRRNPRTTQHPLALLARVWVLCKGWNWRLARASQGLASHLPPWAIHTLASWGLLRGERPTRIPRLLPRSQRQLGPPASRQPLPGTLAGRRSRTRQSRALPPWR

Structure (SMILES) | pIC50 [1] | pIC50 [2] | pIC50 [3]
CCc1ccc(-c2ccc(C(=O)NCC(=O)NC3CCCCC3)cc2)cc1 [Entry 53, N-[2-(cyclohexylamino)-2-oxoethyl]-4′-ethylbiphenyl-4-carboxamide] | < 5.30 | < 5.30 | < 5.30
CCc1ccc(-c2ccc(C(=O)NCC(=O)N3CCN(c4ccccc4)CC3)cc2)cc1 [Entry 68, 4′-ethyl-N-[2-oxo-2-(4-phenylpiperazin-1-yl)ethyl]biphenyl-4-carboxamide] | < 5.30 | < 5.30 | < 5.30
O=C(COc1ccc(OC(F)(F)F)cc1)NCC(=O)NC1CCCc2ccccc21 (stereo not drawn) [Entry 31, N-(1,2,3,4-tetrahydronaphthalen-1-yl)-N˜2˜-[({4-[(trifluoromethyl)oxy]phenyl}oxy)acetyl]glycinamide] | 5.30 to 6.30 | 5.30 to 6.30 | 5.30 to 6.30
O=C(CC(NC(=O)c1ccccc1)c1ccccc1)NCC(=O)NC1CCCc2ccccc21 (stereo not drawn) [Entry 81, N-(3-oxo-3-{[2-oxo-2-(1,2,3,4-tetrahydronaphthalen-1-ylamino)ethyl]amino}-1-phenylpropyl)benzamide] | < 5.30 | < 5.30 | < 5.30
COc1ccc2nc(NC(=O)CNC(=O)CC(NC(C)=O)c3ccccc3)sc2c1 (stereo not drawn) [Entry 84, 3-(acetylamino)-N-(2-{[6-(methyloxy)-1,3-benzothiazol-2-yl]amino}-2-oxoethyl)-3-phenylpropanamide] | < 5.30 | < 5.30 | < 5.30
O=C(CNCc1ccc(-c2ccccc2)cc1)NC1CCCc2ccccc21 (stereo not drawn) [Entry 69, N˜2˜-(biphenyl-4-ylmethyl)-N-(1,2,3,4-tetrahydronaphthalen-1-yl)glycinamide] | < 5.30 | < 5.30 | < 5.30
O=C(CNC(=O)Nc1ccc(-c2ccccc2)cc1)NC1CCCc2ccccc21 (stereo not drawn) [Entry 73, N˜2˜-[(biphenyl-4-ylamino)carbonyl]-N-(1,2,3,4-tetrahydronaphthalen-1-yl)glycinamide] | < 5.30 | 6.30 to 7.30 | < 5.30
COc1ccc(/C=C/C(=O)N[C@@H](COCc2ccccc2)C(=O)NC(c2ccccc2)c2ccccc2)cc1OC [Entry 30, N˜2˜-{(2E)-3-[3,4-bis(methyloxy)phenyl]prop-2-enoyl}-N-(diphenylmethyl)-O-(phenylmethyl)serinamide] | 5.30 to 6.30 | 6.30 to 7.30 | < 5.30
CCc1ccc(-c2ccc(C(=O)NCC(=O)NC3CN(C(=O)OC(C)(C)C)Cc4ccccc43)cc2)cc1 (stereo not drawn) [Entry 95, 1,1-dimethylethyl 4-({N-[(4′-ethylbiphenyl-4-yl)carbonyl]glycyl}amino)-3,4-dihydroisoquinoline-2(1H)-carboxylate] | < 5.30 | 5.30 to 6.30 | < 5.30
O=C(CNC(=O)c1ccc(OC(F)(F)F)cc1)NC1CCCc2ccccc21 (stereo not drawn) [Entry 45, N-[2-oxo-2-(1,2,3,4-tetrahydronaphthalen-1-ylamino)ethyl]-4-[(trifluoromethyl)oxy]benzamide] | 5.30 to 6.30 | 6.30 to 7.30 | 5.30 to 6.30
COc1cc2cc(C(=O)NCC(=O)NC3CCCc4ccccc43)[nH]c2cc1OC (stereo not drawn) [Entry 59, 5,6-bis(methyloxy)-N-(2-oxo-2-(1,2,3,4-tetrahydronaphthalen-1-ylamino)ethyl]-1H-indole-2-carboxamide] | 5.30 to 6.30 | 6.30 to 7.30 | 5.30 to 6.30
O=C(COc1ccc(Cl)cc1)NCC(=O)NC1CCCc2ccccc21 (stereo not drawn) [Entry 34, N˜2˜-{[(4-chlorophenyl)oxy]acetyl}-N-(1,2,3,4-tetrahydronaphthalen-1-yl)glycinamide] | < 5.30 | 5.30 to 6.30 | < 5.30
O=C(CC(NC(=O)c1ccccc1)c1ccccc1)NCC(=O)Nc1nc2ccccc2s1 (stereo not drawn) [Entry 90, N-(3-{[2-(1,3-benzothiazol-2-ylamino)-2-oxoethyl]amino}-3-oxo-1-phenylpropyl)benzamide] | 6.30 to 7.30 | > 7.30 | 6.30 to 7.30

More lines, now with the values ahead:

pIC50 [1] | pIC50 [2] | pIC50 [3] | Structure (SMILES)
6.30 to 7.30 | 6.30 to 7.30 | 5.30 to 6.30 | O=C(CNC(=O)COc1ccc(Br)cc1)NCc1ccc(Cl)c(Cl)c1 [Entry 25, N˜2˜-{[(4-bromophenyl)oxy]acetyl}-N-[(3,4-dichlorophenyl)methyl]glycinamide]
6.30 to 7.30 | > 7.30 | 5.30 to 6.30 | COc1ccc(/C=C/C(=O)N2Cc3[nH]cnc3CC2C(=O)NCCc2cccc(Cl)c2)cc1OC (stereo not drawn) [Entry 15, 5-{(2E)-3-[3,4-bis(methyloxy)phenyl]prop-2-enoyl}-N-[2-(3-chlorophenyl)ethyl]-4,5,6,7-tetrahydro-3H-imidazol[4,5-c]pyridine-6-carboxamide]
6.30 to 7.30 | 6.30 to 7.30 | 6.30 to 7.30 | CCOCCCn1c(=S)[nH]c2cc(C(=O)NCC3COc4ccccc4O3)ccc2c1=O (stereo not drawn) [Entry 39, N-(2,3-dihydro-1,4-benzodioxin-2-ylmethyl)-3-[3-(ethyloxy)propyl]-4-oxo-2-thioxo-1,2,3,4-tetrahydroquinazoline-7-carboxamide]
6.30 to 7.30 | 6.30 to 7.30 | 5.30 to 6.30 | CCCCCOc1ccc(C(=O)NC(C)C(=O)NC2CCc3ccccc3C2)cc1 (stereo not drawn) [Entry 9, N-[1-methyl-2-oxo-2-(1,2,3,4-tetrahydronaphthalen-2-ylamino)ethyl]-4-(pentyloxy)benzamide]
6.30 to 7.30 | 6.30 to 7.30 | 5.30 to 6.30 | CCCCOc1ccc(C(=O)NC(C)C(=O)NC2CCc3ccccc3C2)cc1 (stereo not drawn) [Entry 18, 4-(butyloxy)-N-[1-methyl-2-oxo-2-(1,2,3,4-tetrahydronaphthalen-2-ylamino)ethyl]benzamide]
6.30 to 7.30 | 6.30 to 7.30 | 5.30 to 6.30 | CC(NC(=O)c1ccc(OCc2ccccc2)cc1)C(=O)NC1CCc2ccccc2C1 (stereo not drawn) [Entry 19, N-[1-methyl-2-oxo-2-(1,2,3,4-tetrahydronaphthalen-2-ylamino)ethyl]-4-[(phenylmethyl)oxy]benzamide]
6.30 to 7.30 | 6.30 to 7.30 | 5.30 to 6.30 | COc1ccc(/C=C/C(=O)N[C@@H](Cc2c[nH]c3ccccc23)C(=O)NC2CCCc3ccccc32)cc1OC (stereo partly drawn) [Entry 17, Nalpha-{(2E)-3-[3,4-bis(methyloxy)phenyl]prop-2-enoyl}-N-(1,2,3,4-tetrahydronaphthalen-1-yl)tryptophanamide]
> 7.30 | > 7.30 | 6.30 to 7.30 | CCCCCCOc1ccc(C(=O)NCC(=O)NC2CCCc3ccccc32)cc1 (stereo not drawn) [Entry 6, 4-(hexyloxy)-N-[2-oxo-2-(1,2,3,4-tetrahydronaphthalen-1-ylamino)ethyl]benzamide]
